# Assay results from patent publication US20090306133A1, “New Acetyl Coenzyme A Carboxylase (ACC) Inhibitors And Uses In Treatments Of Obesity And Diabetes Mellitus - 087” (ASTRAZENECA AB, priority 2007, published 2009).
# pIC50: −log10 of the molar value.
# Columns and labels:
# [1] = biological target: Human recombinant Acetyl-CoA Carboxylase 2 (ACC2) (Homo sapiens, UniProt O00763); assay: Assay X: ACC2 inhibition, inorganic phosphate (malachite green); type: biochemical; conditions: Assay X: 37° C., 1.5 h, 5 min pre-incubation
# Procedure, shortened: (§1)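 Human recombinant enzyme pre-incubated 5 min with compound before substrate addition; reaction run 1.5 h, then inorganic phosphate detected by malachite green absorbance at 660 nm. Ten concentrations tested in triplicate; apparent IC50 from four-parameter curve fit.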
# [2] = biological target: Human recombinant Acetyl-CoA Carboxylase 1 (ACC1) (Homo sapiens, UniProt Q13085); assay: Assay X: ACC1 inhibition, inorganic phosphate (malachite green); type: biochemical; conditions: Assay X: 37° C., 1.5 h, 5 min pre-incubation
# Procedure, shortened: as §1
# Chain of Human recombinant Acetyl-CoA Carboxylase 2 (ACC2) (O00763 whole entry): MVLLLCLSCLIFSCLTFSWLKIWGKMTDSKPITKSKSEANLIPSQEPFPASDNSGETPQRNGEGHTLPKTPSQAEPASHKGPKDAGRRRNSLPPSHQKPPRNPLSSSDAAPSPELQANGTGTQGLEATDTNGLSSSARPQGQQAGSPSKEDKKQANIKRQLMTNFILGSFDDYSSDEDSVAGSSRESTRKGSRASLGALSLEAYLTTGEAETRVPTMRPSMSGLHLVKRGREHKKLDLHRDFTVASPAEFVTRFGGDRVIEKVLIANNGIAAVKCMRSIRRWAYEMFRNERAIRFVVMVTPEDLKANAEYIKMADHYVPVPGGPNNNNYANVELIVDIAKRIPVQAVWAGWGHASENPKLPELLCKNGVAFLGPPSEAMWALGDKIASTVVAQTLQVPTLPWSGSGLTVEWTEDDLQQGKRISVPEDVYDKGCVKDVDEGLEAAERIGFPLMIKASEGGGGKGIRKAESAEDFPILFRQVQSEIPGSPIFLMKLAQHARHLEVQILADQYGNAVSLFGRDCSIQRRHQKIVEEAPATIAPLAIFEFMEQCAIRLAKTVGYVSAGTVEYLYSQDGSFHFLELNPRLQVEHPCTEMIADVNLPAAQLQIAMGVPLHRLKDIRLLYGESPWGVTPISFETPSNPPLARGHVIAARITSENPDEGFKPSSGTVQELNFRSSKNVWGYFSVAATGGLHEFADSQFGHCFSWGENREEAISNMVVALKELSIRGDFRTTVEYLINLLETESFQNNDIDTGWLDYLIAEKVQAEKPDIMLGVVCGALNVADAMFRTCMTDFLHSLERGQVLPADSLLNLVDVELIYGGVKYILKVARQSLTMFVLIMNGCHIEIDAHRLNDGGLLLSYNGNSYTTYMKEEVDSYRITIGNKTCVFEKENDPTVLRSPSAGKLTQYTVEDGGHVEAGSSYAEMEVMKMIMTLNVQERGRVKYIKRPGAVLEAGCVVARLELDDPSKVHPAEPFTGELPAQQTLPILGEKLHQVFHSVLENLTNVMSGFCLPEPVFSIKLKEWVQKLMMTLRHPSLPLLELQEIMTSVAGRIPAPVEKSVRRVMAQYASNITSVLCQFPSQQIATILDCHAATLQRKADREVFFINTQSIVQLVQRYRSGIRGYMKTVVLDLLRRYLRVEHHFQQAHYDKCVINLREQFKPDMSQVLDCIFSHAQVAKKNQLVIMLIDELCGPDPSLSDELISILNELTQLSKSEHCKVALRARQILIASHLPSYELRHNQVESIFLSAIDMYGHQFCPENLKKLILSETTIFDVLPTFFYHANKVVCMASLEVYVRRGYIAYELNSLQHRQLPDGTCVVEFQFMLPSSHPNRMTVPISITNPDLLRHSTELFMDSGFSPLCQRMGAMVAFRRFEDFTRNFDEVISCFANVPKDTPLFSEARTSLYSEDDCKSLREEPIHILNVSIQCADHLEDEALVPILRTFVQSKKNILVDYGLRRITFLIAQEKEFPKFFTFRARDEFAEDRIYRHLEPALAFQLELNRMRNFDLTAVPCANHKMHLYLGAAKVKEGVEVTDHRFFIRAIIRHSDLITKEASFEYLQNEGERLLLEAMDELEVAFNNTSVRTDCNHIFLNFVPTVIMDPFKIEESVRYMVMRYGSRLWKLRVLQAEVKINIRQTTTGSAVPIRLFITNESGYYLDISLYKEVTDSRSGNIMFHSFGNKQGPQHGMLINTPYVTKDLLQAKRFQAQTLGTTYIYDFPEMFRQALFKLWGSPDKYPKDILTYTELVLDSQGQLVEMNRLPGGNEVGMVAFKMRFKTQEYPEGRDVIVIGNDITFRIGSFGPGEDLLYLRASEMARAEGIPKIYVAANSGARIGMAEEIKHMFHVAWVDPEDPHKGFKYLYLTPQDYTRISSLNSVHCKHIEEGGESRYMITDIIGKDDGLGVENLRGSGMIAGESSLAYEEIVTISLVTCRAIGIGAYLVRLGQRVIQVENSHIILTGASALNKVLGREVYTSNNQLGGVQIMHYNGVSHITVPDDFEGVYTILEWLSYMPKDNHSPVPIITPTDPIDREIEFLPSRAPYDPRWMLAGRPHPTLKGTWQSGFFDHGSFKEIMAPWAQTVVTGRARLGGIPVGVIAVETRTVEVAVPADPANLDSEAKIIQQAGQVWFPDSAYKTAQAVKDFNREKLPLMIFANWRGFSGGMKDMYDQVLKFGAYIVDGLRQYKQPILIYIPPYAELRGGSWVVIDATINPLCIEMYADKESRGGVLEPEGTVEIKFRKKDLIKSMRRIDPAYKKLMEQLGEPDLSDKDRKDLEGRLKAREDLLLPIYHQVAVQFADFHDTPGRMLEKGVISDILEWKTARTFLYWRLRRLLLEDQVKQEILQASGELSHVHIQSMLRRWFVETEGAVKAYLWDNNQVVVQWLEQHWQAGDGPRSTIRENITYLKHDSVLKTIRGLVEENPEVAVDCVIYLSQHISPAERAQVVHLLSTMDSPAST
SMILES,pIC50 [1],pIC50 [2]
"CN(C)CCOc1ccc(-c2cc(C(=O)NC[C@H]3CC[C@H](CNC(=O)OC4CCOCC4)CC3)c3ccccc3n2)cn1 [Example 195, Tetrahydro-2H-pyran-4-yl {[trans-4-({[(2-{6-[2-(dimethylamino)ethoxy]pyridin-3-yl}quinolin-4-yl)carbonyl]amino}methyl)cyclohexyl]methyl}carbamate]",6.09,5.31
"CN(C)CCOc1ccc(-c2cc(C(=O)NC[C@H]3CC[C@H](CNC(=O)O[C@H]4CCOC4)CC3)c3ccccc3n2)cn1 [Example 196, (3S)-Tetrahydrofuran-3-yl {[trans-4-({[(2-{6-[2-(dimethylamino)ethoxy]pyridin-3-yl}quinolin-4-yl)carbonyl]amino}methyl)cyclohexyl]methyl}carbamate]",6.04,5.46
"O=C(NC[C@H]1CC[C@H](CNC(=O)c2cc(-c3ccc(NCCO)nc3)nc3ccccc23)CC1)OC1CCOCC1 [Example 197, Tetrahydro-2H-pyran-4-yl {[trans-4-({[(2-{6-[(2-hydroxyethyl)amino]pyridin-3-yl}quinolin-4-yl)carbonyl]amino}methyl)cyclohexyl]methyl}carbamate]",5.70,5.02
"O=C(NC[C@H]1CC[C@H](CNC(=O)c2cc(-c3ccc(NCCO)nc3)nc3ccccc23)CC1)O[C@H]1CCOC1 [Example 200, (3S)-Tetrahydrofuran-3-yl{[trans-4-({[(2-{6-[(2-hydroxyethyl)amino]pyridin-3-yl}quinolin-4-yl)carbonyl]amino}methyl)cyclohexyl]methyl}-carbamate]",5.92,5.35
"O=C(NC[C@H]1CC[C@H](CNC(=O)c2cc(-c3ccc(N4CC[C@@H](O)C4)nc3)nc3ccccc23)CC1)O[C@H]1CCOC1 [Example 201, (3S)-Tetrahydrofuran-3-yl {[trans-4-({[(2-{6-[(3R)-3-hydroxypyrrolidin-1-yl]pyridin-3-yl}quinolin-4-yl)carbonyl]amino}methyl)cyclohexyl]methyl}-carbamate]",6.07,5.66
"CN(C)C(=O)COC1CCN(c2cc(C(=O)NC[C@H]3CC[C@H](CNC(=O)OC(C)(C)C)CC3)c3ccccc3n2)CC1 [Example 210, tert-Butyl {[trans-4-({[(2-{4-[2-(dimethylamino)-2-oxoethoxy]piperidin-1-yl}quinolin-4-yl)carbonyl]amino}methyl)cyclohexyl]methyl}carbamate]",5.69,4.88
"CC(C)(C)OC(=O)NC[C@H]1CC[C@H](CNC(=O)c2cc(N3CCC(CN4CCOCC4)CC3)nc3ccccc23)CC1 [Example 213, tert-Butyl[(trans-4-{[({2-[4-(morpholin-4-ylmethyl)piperidin-1-yl]quinolin-4-yl}carbonyl)amino]methyl}cyclohexyl)methyl]-carbamate]",6.21,5.48
"CN1CCN(C2CCN(c3cc(C(=O)NC[C@H]4CC[C@H](CNC(=O)OC(C)(C)C)CC4)c4ccccc4n3)CC2)CC1 [Example 214, tert-Butyl[(trans-4-{[({2-[4-(4-methylpiperazin-1-yl)piperidin-1-yl]-quinolin-4-yl}carbonyl)amino]methyl}cyclohexyl)methyl]-carbamate]",5.65,5.48
"CN1CCC(COc2cc(C(=O)NC[C@H]3CC[C@H](CNC(=O)OC(C)(C)C)CC3)c3ccccc3n2)CC1 [Example 216, tert-Butyl [(trans-4-{[({2-[(1-methylpiperidin-4-yl)methoxy]quinolin-4-yl}carbonyl)amino]methyl}cyclohexyl)methyl]-carbamate]",6.14,5.45

# Compounds with a higher pIC50 [1], results first:
pIC50 [1],pIC50 [2],SMILES
6.29,5.96,"O=C(NC[C@H]1CC[C@H](CNC(=O)c2cc(-c3ccc(N4CC[C@@H](O)C4)nc3)nc3ccccc23)CC1)OC1CCOCC1 [Example 202, Tetrahydro-2H-pyran-4-yl {[trans-4-({[(2-{6-[(3R)-3-hydroxypyrrolidin-1-yl]pyridin-3-yl}quinolin-4-yl)carbonyl]amino}methyl)cyclohexyl]methyl}-carbamate]"
6.31,< 4.70,"CC(C)(C)OC(=O)NC[C@H]1CC[C@H](CNC(=O)c2cc(Oc3cccnc3)nc3ccccc23)CC1 [Example 215, tert-Butyl ({trans-4-[({[2-(pyridin-3-yloxy)quinolin-4-yl]carbonyl}amino)-methyl]cyclohexyl}methyl)carbamate]"
6.42,5.85,"CN(C)CCNc1ccc(-c2cc(C(=O)NC[C@H]3CC[C@H](CNC(=O)OC4CCOCC4)CC3)c3ccccc3n2)cn1 [Example 198, Tetrahydro-2H-pyran-4-yl({trans-4-[({[2-(6-{[2-(dimethylamino)-ethyl]amino}pyridin-3-yl)quinolin-4-yl]carbonyl}amino)-methyl]cyclohexyl}-methyl)carbamate]"
6.43,5.80,"CN(C)CCNc1ccc(-c2cc(C(=O)NC[C@H]3CC[C@H](CNC(=O)O[C@H]4CCOC4)CC3)c3ccccc3n2)cn1 [Example 199, (3S)-Tetrahydrofuran-3-yl({trans-4-[({[2-(6-{[2-(dimethylamino)ethyl]-amino}pyridin-3-yl)quinolin-4-yl]carbonyl}amino)-methyl]cyclohexyl}-methyl)carbamate]"
6.57,5.65,"CN(C)CCOC1CCN(c2cc(C(=O)NC[C@H]3CC[C@H](CNC(=O)OC(C)(C)C)CC3)c3ccccc3n2)CC1 [Example 211, tert-Butyl {[trans-4-({[(2-{4-[2-(dimethylamino)ethoxy]piperidin-1-yl}quinolin-4-yl)carbonyl]amino}methyl)cyclohexyl]methyl}carbamate]"
6.82,6.20,"CN(C)CCOc1ccc(-c2cc(C(=O)NC[C@H]3CC[C@H](CNC(=O)OC(C)(C)C)CC3)c3ccccc3n2)cc1 [Example 203, tert-Butyl {[trans-4-({[(2-{4-[2-(dimethylamino)ethoxy]phenyl}quinolin-4-yl)carbonyl]amino}methyl)cyclohexyl]methyl}carbamate]"
6.85,5.88,"CN(C)CC(O)CC1CCN(c2cc(C(=O)NC[C@H]3CC[C@H](CNC(=O)OC(C)(C)C)CC3)c3ccccc3n2)CC1 (stereo partly drawn) [Example 205, tert-Butyl {[trans-4-({[(2-{4-[3-(dimethylamino)-2-hydroxypropyl]piperidin-1-yl}quinolin-4-yl)carbonyl]amino}methyl)cyclohexyl]methyl}carbamate]"
6.92,5.92,"CN(C)CCC1CCN(c2cc(C(=O)NC[C@H]3CC[C@H](CNC(=O)OCC(C)(C)C)CC3)c3ccccc3n2)CC1 [Example 212, 2,2-Dimethylpropyl {[trans-4-({[(2-{4-[2-(dimethylamino)ethyl]piperidin-1-yl}quinolin-4-yl)carbonyl]amino}methyl)cyclohexyl]methyl}carbamate]"
7.30,6.29,"CC(C)(C)OC(=O)NC[C@H]1CC[C@H](CNC(=O)c2cc(N3CCC(CCN)CC3)nc3ccccc23)CC1 [Example 194, tert-Butyl [(trans-4-{[({2-[4-(2-aminoethyl)piperidin-1-yl]quinolin-4-yl}carbonyl)amino]methyl}cyclohexyl)methyl]carbamate]"
